Series [1] can be described thus: SRB-based cytotoxicity assay. In kind it is cell-based. Particulars: human, MCF-10A cells (non-cancer breast cells); MCF10A; 31.25 nM; 72 hours; read-out: cell viability. The method, boiled down: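 Following a 16 h settling period, medium containing compound was added for 72 h. Proliferation was then quantified from absorbance at 540 nm of SRB-stained protein, normalised between TCA-treated and sham DMSO controls, and fitted to obtain IC50.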

Another series has as its system MDA-MB-231. The series can be described thus: Immunofluorescent staining: centrosomes and chromosome segregation. The series is classed as cell-based, human. Particulars: for ACS (abnormal chromosome segregation) / Monopolar centrosome: MDA-MB-231, 3 μM. On the procedure:
Cells on coverslips placed on the bottom of 35 mm tissue culture plates or 6-well clustered dishes were treated for 12-24 hours with the CTR compounds to be tested. Subsequently, the cells were fixed with 100% methanol for 15 minutes and washed with 1×PBS three times. Cells were then “blocked” with 3% BSA or 1% (v/v) FBS plus 1×PBST (1×PBS buffer containing 0.1% (v/v) Triton X-100 or 0.2% Tween 20), and incubated overnight at 4° C. with primary antibodies, with gentle agitation. Unbound primary antibodies were washed off with PBST, and a secondary antibody was added for 1 hour in the dark. Secondary antibodies were conjugated to Alexa 488 or 568. DNA was counterstained with DRAQ5 or DAPI. Subsequently, coverslips were washed three times with 1×PBST for 10 minutes each, followed by mounting them onto slides with 90% glycerol in 1×PBS. Each slide was visualized with a Carl Zeiss 510 Meta laser scanning microscope or an Axioscope. Image analysis was done with an LSM image examiner equipped with the microscopes (Carl Zeiss, Toronto, ON, Canada).
The cancer-specific increase of mitotic cells in response to CTR-17 was correlated with the accumulation of cells with monopolar centrosomes and abnormal chromosome alignment/segregation (FIG. 11, Table 5). Cells were either sham-treated or treated with 3.0 μM CTR-17 for 12 hours or 24 hours, followed by analyses of cell cycle progression, centrosome abnormalities, and chromosome alignment/segregation. […] The mitotic index was determined by fluorescence microscopic analysis of at least 200 cells for each cell type, and data was expressed as percentage mean±S.E.M. of at least two independent experiments.
Asynchronously growing cells were treated with 1 μM CTR-20 for 24 hours, followed by examining cells arrested in mitosis. The percentage of mitotic cells was calculated based on the examination of at least 250-400 cells. Cells treated with 1 μM CTR-20 for 24 hours on coverslips were fixed with ice-cold methanol, immunostained with an α-tubulin antibody, and then counterstained DNA with DRAQ5 prior to observing by florescent microscopy (Table 6). […] Similarly, cells treated with 1 μM CTR-20 accumulated monopolar centrosomes and defective chromosomal alignment and segregation in a cancer-specific manner.

In series [2] the test system is tubulin (vinblastine binding site). Put plainly: BODIPY FL vinblastine competition assay. Also on record: species or system porcine. Conditions: 25 μM; 5 μM BODIPY FL-vinblastine. From the text: For the vinblastine competition assay, fluorescence was monitored by excitation of the reaction mixture at 490 nm and the emission spectra at the 510-550 nm range.
In the next series the test system is HeLa S3 cells. The series can be described thus: Trypan blue exclusion assay. The series is classed as cell-based. Conditions: 1 μM; 72 hours post-treatment. The protocol: Cell survival/death was determined by trypan blue exclusion assays.
The target of series [3] is T1, tubulin (colchicine-binding site) (Sus scrofa, UniProt P02550+P02554).
T1 construct: purchased Cytoskeleton Inc. (Denver, Colo.) T240
The series can be described thus: Colchicine competition assay. Also on record: species or system porcine. Particulars: colchicine 1.0-8.0 μM.

The target in a further series is T2, tubulin (Sus scrofa, UniProt P02550+P02554).
T2 construct: purchased Cytoskeleton Inc. (Denver, Colo.) T240
Put plainly: Dissociation constant of CTR-tubulin binding (tryptophan fluorescence). Also on record: species or system porcine. Conditions: purified tubulin 0.4 μM, 30 minutes at 37° C. The protocol:
Purified tubulin (0.4 μM) was dissolved in 25 mM PIPES buffer (pH 6.8) and incubated in the presence or absence of different concentrations of CTR-17 (or CTR-20) for 30 minutes at 37° C. The intrinsic fluorescence of the tryptophan residues in the tubulin heterodimers was monitored by excitation of the reaction mixture at 295 nm and the emission spectra at the 315-370 nm wavelength range. All measurements were corrected for the inner filter using the formula Fcorrected=Fobserved×antilog [(Aex+Aem)/2], where Aex and Aem are the absorbance of the reaction mixture at the excitation and emission wavelengths, respectively. Graph Pad Prism software was used to determine the dissociation constant of the CTR compounds binding to tubulin using the following formula
wherein ΔF is the changes in fluorescence intensity of tubulin when bound with the CTR compounds, ΔFmax is the maximum change in the fluorescence intensity when tubulin is bound with the compounds, C is the concentration of the CTR compounds, and Kd is the dissociation constant of the CTR compounds bound to tubulin.

The test system of the next series is T98G (brain). Put plainly: SRB-based cytotoxicity assay. The series is classed as cell-based. Particulars: Homo sapiens, 72 hours. Put shortly: (§1)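 Seventy-two-hour SRB protein-staining assay with 4,000-5,000 cells/well and compounds delivered in DMSO. Fixation uses cold 10% TCA, and dye is released in Tris pH 10.5 before reading at 540 nm. Duplicate biological experiments, each in quadruplicate, feed the dose-response fits.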

A further series deals with K562. Put plainly: SRB-based cytotoxicity assay. The series is classed as cell-based. Particulars: Homo sapiens, Table 2. The method, boiled down: as §1
A further series deals with HEK293T (kidney). The series can be described thus: SRB-based cytotoxicity assay. The series is classed as cell-based. Conditions: Homo sapiens, HEK-293T, 72 hours. The method, boiled down:
as §1

The next series has as its system HeLa cells. The series can be described thus: γ-H2AX immunostaining (DNA damage). In kind it is cell-based. Conditions: 3.0 μM. The protocol:
CTR-17 caused neither impediment of DNA replication nor DNA damage. […] The detection of EdU incorporated into DNA was carried out by fluorescence microscopy. […] Etoposide (50.0 μM) was used as a positive control.

From patent US20180344725A1, “QUINOLONE CHALCONE COMPOUNDS AND USES THEREOF” (priority 2015, published 2018) come the findings set out here.

By viability is commonly meant the share of living cells, or the viability signal relative to a control. In general, Kd refers to the free concentration of one partner at which half of the binding sites on the other are occupied at equilibrium, for simple one-to-one binding. Higher therefore signals a looser complex. The IC50 is the concentration that inhibits the measured activity by half.

In the case of `CCOc1ccccc1C(=O)/C=C/c1cc2ccccc2[nH]c1=O` [CTR-32, (E)-3-(3-(2-ethoxyphenyl)-3-oxoprop-1-enyl)quinolin-2(1H)-one], the viability at 72 h, 0.03125 µM in series [1] turned out to be 87%.
Regarding `COc1ccc2[nH]c(=O)c(/C=C/C(=O)c3ccccc3OC)cc2c1` [CTR-20, (E)-6-Methoxy-3-(3-(2-methoxyphenyl)-3-oxoprop-1-enyl) quinolin-2(1H)-one], in the series on MDA-MB-231 (MB231, 1 μM, 24 hours), the “ACA/S (%) (abnormal chromosome alignment and segregation)” value is 58.05 ± 6.21%. For the same compound, in the series with MDA-MB-231 (MB231, 1 μM, 24 hours), the “Monopolar (%)” value is on record as 35.73 ± 5.59%. In addition, the “binding to the vinblastine binding site on the tubulin” value in series [2] is reported as “did not bind to the vinblastine binding site”. Further, the cell death in the series on HeLa S3 cells is given as ~70%. Further, in series [3], the “effect on binding of colchicine to tubulin” value is listed as “inhibited the binding of colchicine to tubulin”. The same compound yielded a Kd at tubulin of 5090 ± 490 nM. For the same compound, the concentration for half-maximal inhibition (IC50) in the series with T98G (brain) came to 220 ± 100 nM; in the series with K562, 130 ± 20 nM; in the series with HEK293T (kidney) it was 190 nM.
`COc1ccccc1C(=O)/C=C/c1cc2cccc(OC)c2[nH]c1=O` [CTR-21, (E)-8-methoxy-3-(3-(2-methoxyphenyl)-3-oxoprop-1-enyl) quinolin-2(1H)-one]: the viability at 72 h, 0.03125 µM in series [1] was found to be 26%.
For the compound `COc1ccccc1C(=O)/C=C/c1cc2ccccc2[nH]c1=O` [CTR-17, (E)-3-(3-(2-Methoxyphenyl)-3-oxoprop-1-enyl)quinolin-2(1H)-one], the “ACS (abnormal chromosome segregation)” value in the series with MDA-MB-231 (12 h post-treatment) is given as 60.0 ± 10.2% of total mitotic cells; in the series on MDA-MB-231 (24 h post-treatment), 55.1 ± 5.7% of total mitotic cells. Moreover, the Monopolar centrosome is 40.0 ± 10.2% of total mitotic cells with MDA-MB-231 (12 h post-treatment) and 44.9 ± 5.7% of total mitotic cells with MDA-MB-231 (24 h post-treatment). The “binding to the vinblastine binding site on the tubulin” value in series [2] is listed as “did not bind to the vinblastine binding site”. Besides, the “effect on binding of colchicine to tubulin” value in [3] is given as “inhibited the binding of colchicine to tubulin”. This compound had a Kd at tubulin of 4580 ± 950 nM. For the same compound, the IC50 in the series on T98G (brain) was found to be 820 ± 90 nM; in the series on K562, 150 ± 100 nM; in the series with HEK293T (kidney), 420 ± 70 nM. In the series on HeLa cells, the “DNA damage (γ-H2AX)” value is reported as “does not cause any notable DNA damage”.
